Measurements as given in patent US20100267561A1, “HERBICIDAL PYRIDAZINONE DERIVATIVES” (priority 2007, published 2010).

How the values were obtained:
Assay type in all cases: in vivo
[1] = tested on: chickweed (Stellaria media); assay: Test B postemergence plant response; conditions: for Plant response rating, Chickweed: Postemergence
Outline: (§1)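 Postemergence greenhouse test; plants at 2 to 18 cm (1- to 4-leaf stage) given formulated test chemical, held 13 to 15 days, then visually rated against untreated controls on a 0 (no effect) to 100 (complete control) scale; dash means no result.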

[2] = tested on: canarygrass (Phalaris minor); assay: Test B postemergence plant response; conditions: for Plant response rating, Canarygrass: Postemergence
Outline: as §1

[3] = tested on: winter barley (Hordeum vulgare); assay: Test B postemergence plant response; conditions: for Plant response rating, Barley: Postemergence
Outline: as §1

[4] = tested on: windgrass (Apera spica-venti); assay: Test B postemergence plant response; conditions: for Plant response rating, Windgrass: Postemergence
Outline: as §1

rice (Oryza sativa) = assay: Test B flooded paddy test plant response
Outline: (§2)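 Paddy-water application to 2-leaf plants in pots held under 3 cm of flooding; response is a 0–100 visual control rating against controls after 13 to 15 days, and a dash marks a missing result.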

[5] = tested on: barnyardgrass (Echinochloa crus-galli); assay: Test B flooded paddy test plant response
Outline: as §2

[6] = tested on: umbrella sedge (Cyperus difformis); assay: Test B flooded paddy test plant response
Outline: as §2

[7] = tested on: large crabgrass (Digitaria sanguinalis); assay: Test A pre-/postemergence plant response
Outline: (§3)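 Seeds in loam soil/sand blend treated preemergence by directed soil spray, with simultaneous postemergence spray on 2–10 cm plants at one- to two-leaf stage; compounds in non-phytotoxic solvent with surfactant. Injury visually rated versus untreated controls after about 10 days in greenhouse, 0 (no effect) to 100 (complete control).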

[8] = tested on: wheat (Triticum aestivum); assay: Test A pre-/postemergence plant response
Outline: as §3

corn (Zea mays) = assay: Test A pre-/postemergence plant response
Outline: as §3

[9] = tested on: velvetleaf (Abutilon theophrasti); assay: Test A pre-/postemergence plant response
Outline: as §3

[10] = tested on: morningglory (Ipomoea coccinea); assay: Test A pre-/postemergence plant response
Outline: as §3

[11] = tested on: barnyardgrass (Echinochloa crus-galli); assay: Test A pre-/postemergence plant response
Outline: as §3

[12] = tested on: giant foxtail (Setaria faberi); assay: Test A pre-/postemergence plant response
Outline: as §3

[13] = 8 g ai/ha, postemergence, 0-100 scale
[14] = 31 g ai/ha, scale 0 to 100, 0 no effect, 100 complete control
[15] = 62 g ai/ha, scale 0 to 100, 0 no effect, 100 complete control
[16] = Flood (flooded paddy test), 62 g ai/ha, scale 0 to 100, 0 no effect, 100 complete control
[17] = Flood (flooded paddy test), 125 g ai/ha, scale 0 to 100, 0 no effect, 100 complete control
[18] = Flood (flooded paddy test), 250 g ai/ha, scale 0 to 100, 0 no effect, 100 complete control
[19] = Flood, 31 g ai/ha, scale 0 to 100
[20] = Postemergence, 31 g ai/ha, 0 to 100 scale, 0 no effect, 100 complete control
[21] = Postemergence, 125 g ai/ha, 0 to 100 scale, 0 no effect, 100 complete control
[22] = Preemergence, 31 g ai/ha, 0 to 100 scale, 0 is no effect, 100 is complete control
[23] = Preemergence, 125 g ai/ha, 0 to 100 scale (0 no effect, 100 complete control)
[24] = Postemergence, 500 g ai/ha, 0 to 100 scale, 0 no effect, 100 complete control
[25] = Preemergence, 500 g ai/ha, 0 to 100 scale (0 no effect, 100 complete control)

Cc1cc(-c2ccc(C(F)(F)F)c(F)c2)nn1-c1c(O)c(C(F)(F)F)nn(C)c1=O [Compound 44]
40: Plant response rating, Rice (rice (Oryza sativa); [18]) | Plant response rating, Wheat [8, 22]
15: Barley plant response rating [3, 13] | Plant response rating, Rice (rice (Oryza sativa); [16])
90: Plant response rating, Canarygrass ([2]; 16 g ai/ha, scale 0 to 100) | Plant response rating, Canarygrass [2, 14] | Plant response rating, Corn (corn (Zea mays); [21]) | Plant response rating, Foxtail, Giant [12, 20]
50: Canarygrass plant response rating [2, 13] | Plant response rating, Barnyardgrass [5, 18] | Plant response rating, Crabgrass, Large [7, 20]
80: Plant response rating, Wheat [8, 21] | Plant response rating, Wheat [8, 23] | Plant response rating, Corn (corn (Zea mays); [23]) | Plant response rating, Barnyardgrass [11, 22] | Plant response rating, Foxtail, Giant [12, 22]
0: Chickweed plant response rating [1, 13] | Plant response rating, Chickweed ([1]; 16 g ai/ha, scale 0 to 100) | Plant response rating, Chickweed [1, 14] | Plant response rating, Chickweed [1, 15] | Plant response rating, Rice (rice (Oryza sativa); [19]) | Plant response rating, Barnyardgrass [5, 16] | Plant response rating, Barnyardgrass [5, 19] | Plant response rating, Sedge, Umbrella [6, 16] | Plant response rating, Sedge, Umbrella [6, 19] | Plant response rating, Velvetleaf [9, 20] | Plant response rating, Velvetleaf [9, 21] | Plant response rating, Velvetleaf [9, 22] | Plant response rating, Velvetleaf [9, 23] | Plant response rating, Morningglory [10, 20] | Plant response rating, Morningglory [10, 21] | Plant response rating, Morningglory [10, 22] | Plant response rating, Morningglory [10, 23]
100: Plant response rating, Windgrass [4, 15] | Plant response rating, Crabgrass, Large [7, 21] | Plant response rating, Crabgrass, Large [7, 23] | Plant response rating, Barnyardgrass [11, 20] | Plant response rating, Barnyardgrass [11, 21] | Plant response rating, Barnyardgrass [11, 23] | Plant response rating, Foxtail, Giant [12, 21] | Plant response rating, Foxtail, Giant [12, 23]
20: Plant response rating, Barley ([3]; 16 g ai/ha, scale 0 to 100, 0 no effect, 100 complete control) | Plant response rating, Barley [3, 14] | Plant response rating, Barley [3, 15] | Plant response rating, Rice (rice (Oryza sativa); [17]) | Plant response rating, Sedge, Umbrella [6, 17] | Plant response rating, Crabgrass, Large [7, 22]
70: Plant response rating, Wheat [8, 20] | Plant response rating, Corn (corn (Zea mays); [20])
30: Plant response rating, Barnyardgrass [5, 17] | Plant response rating, Sedge, Umbrella [6, 18] | Plant response rating, Corn (corn (Zea mays); [22])
85: Windgrass plant response rating [4, 13] | Plant response rating, Windgrass ([4]; 16 g ai/ha, scale 0 to 100)

5-[3-(4-chlorophenyl)-5-methyl-1H-pyrazol-1-yl]-1,6-dihydro-1-methyl-6-oxo-4-pyridazinyl-1-methylethyl carbonate [Compound 7]
70: Plant response rating, Sedge, Umbrella [6, 19]
65: Plant response rating, Rice (rice (Oryza sativa); [18]) | Plant response rating, Barnyardgrass [5, 17]
60: Plant response rating, Wheat [8, 24] | Plant response rating, Wheat [8, 23] | Plant response rating, Corn (corn (Zea mays); [23])
0: Plant response rating, Chickweed [1, 14] | Plant response rating, Chickweed ([1]; 62 g ai/ha, scale 0 to 100) | Plant response rating, Chickweed ([1]; 125 g ai/ha, scale 0 to 100) | Plant response rating, Chickweed ([1]; 250 g ai/ha, scale 0 to 100) | Plant response rating, Barley ([3]; 62 g ai/ha, scale 0 to 100) | Plant response rating, Barley ([3]; 125 g ai/ha, scale 0 to 100) | Plant response rating, Barley ([3]; 250 g ai/ha, scale 0 to 100) | Plant response rating, Velvetleaf [9, 23] | Plant response rating, Morningglory [10, 21]
85: Plant response rating, Windgrass ([4]; 62 g ai/ha, scale 0 to 100) | Plant response rating, Barnyardgrass [5, 18]
50: Plant response rating, Corn (corn (Zea mays); [21])
100: Plant response rating, Windgrass ([4]; 125 g ai/ha, scale 0 to 100) | Plant response rating, Windgrass ([4]; 250 g ai/ha, scale 0 to 100) | Plant response rating, Crabgrass, Large [7, 23] | Plant response rating, Crabgrass, Large [7, 25] | Plant response rating, Corn (corn (Zea mays); [24]) | Plant response rating, Barnyardgrass [11, 24] | Plant response rating, Barnyardgrass [11, 23] | Plant response rating, Barnyardgrass [11, 25] | Plant response rating, Foxtail, Giant [12, 23] | Plant response rating, Foxtail, Giant [12, 25]
80: Plant response rating, Windgrass [4, 14] | Plant response rating, Sedge, Umbrella [6, 16] | Plant response rating, Sedge, Umbrella [6, 17] | Plant response rating, Sedge, Umbrella [6, 18] | Plant response rating, Crabgrass, Large [7, 21] | Plant response rating, Wheat [8, 25] | Plant response rating, Barnyardgrass [11, 21]
30: Plant response rating, Rice (rice (Oryza sativa); [16]) | Plant response rating, Velvetleaf [9, 25]
40: Plant response rating, Wheat [8, 21] | Plant response rating, Velvetleaf [9, 24]
20: Plant response rating, Rice (rice (Oryza sativa); [19]) | Plant response rating, Barnyardgrass [5, 19] | Plant response rating, Velvetleaf [9, 21] | Plant response rating, Morningglory [10, 24] | Plant response rating, Morningglory [10, 23] | Plant response rating, Morningglory [10, 25]
90: Plant response rating, Canarygrass [2, 14] | Plant response rating, Canarygrass ([2]; 125 g ai/ha, scale 0 to 100) | Plant response rating, Canarygrass ([2]; 250 g ai/ha, scale 0 to 100) | Plant response rating, Crabgrass, Large [7, 24] | Plant response rating, Corn (corn (Zea mays); [25]) | Plant response rating, Foxtail, Giant [12, 21] | Plant response rating, Foxtail, Giant [12, 24]
45: Plant response rating, Rice (rice (Oryza sativa); [17]) | Plant response rating, Barnyardgrass [5, 16]
